The source of these data is article PMC8329730 (Journal of medicinal chemistry, 2019).

The nature of series [1]: human liver microsome intrinsic clearance. The settings on record: human liver microsomes. (In general: Liver microsomes are vesicles of endoplasmic reticulum, rich in cytochrome P450 enzymes.)
Another series can be described thus: LogD. It counts as physicochemical. The settings on record: pH 7.4.
Series [2] is described as follows: mouse PK, blood and brain, 10 mg/kg IP. It is filed as in vivo. The following applies: female, NMRI, whole blood.
Series [3] is described as follows: toxicity observed on dosing mice. It is filed as in vivo, mouse. The settings on record: 50 mg/kg QD.

For orientation: logD means lipophilicity at a set pH, counting ionised and neutral species. A word on the Tmax: it is the time from dosing to the highest level.

Where a name gives a salt, the structure may show the parent alone.

With “1-((6aR,9aR)-4-(2-Aminopyrimidin-4-yl)-6a,7,8,9,9a,10-hexahydro-2H-cyclopenta[2,3][1,4]oxazepino[5,6,7-cd]indazol-2-yl)ethan-1-one [compound 49]”, the “HLM Clint” value in series [1] is “highly cleared”. As for `c1ccc2c(c1)Nc1n[nH]c3cccc(c13)O2` [9a], the log distribution coefficient (logD) in the series “LogD” amounted to 4.1.

`CCOc1cc(-c2ccnc(N)n2)cc2[nH]nc(N)c12` [57a, 6-(2-Aminopyrimidin-4-yl)-4-ethoxy-1H-indazol-3-amine formate]: the Tmax in series [2] lay in the range of 15 to 30 min. `Cn1nc2c3c(cc(-c4ccnc(N)n4)cc31)Oc1ccccc1N2` [compound 18, 4-(2-Methyl-2,11-dihydrobenzo[2,3][1,4]oxazepino[5,6,7-cd]indazol-4-yl)pyrimidin-2-amine]: the time of peak concentration (Tmax) in series [2] was in the range of 15 to 30 min. For the same compound, in series [3], the “animals dying within 30 minutes of treatment” value worked out at 50%. The “animals experiencing inflammation after dosing” value in series [3] (resolved with time) turned out to be 50%.
